Experimental data from patent publication US12226418B2, “Dosing regimen for the treatment of PI3K related disorders” (Incyte Corporation, priority 2018, dated 2025).

Columns and labels:
JAK1 = JAK1 (Homo sapiens (Human), UniProt P23458); assay: JAK1 IC50, Assay A of U.S. Ser. No. 14/680,659 at 1 mM ATP; format: biochemical
JAK2 = JAK2 (Homo sapiens (Human), UniProt O60674); assay: JAK2/JAK1 selectivity, Assay A at 1 mM ATP; format: biochemical; conditions: IC50 ratio
Sequence of JAK2 (O60674 828-1132): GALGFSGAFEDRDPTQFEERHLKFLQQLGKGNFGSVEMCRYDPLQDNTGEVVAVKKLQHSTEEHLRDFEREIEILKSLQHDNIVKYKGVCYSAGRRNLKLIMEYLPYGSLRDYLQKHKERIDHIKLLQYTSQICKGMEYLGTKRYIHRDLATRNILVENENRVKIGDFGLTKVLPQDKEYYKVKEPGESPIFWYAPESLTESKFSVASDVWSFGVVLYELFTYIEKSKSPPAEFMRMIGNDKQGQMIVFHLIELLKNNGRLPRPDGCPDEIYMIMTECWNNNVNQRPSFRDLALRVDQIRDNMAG

Sequence of JAK1 (P23458 837-1142): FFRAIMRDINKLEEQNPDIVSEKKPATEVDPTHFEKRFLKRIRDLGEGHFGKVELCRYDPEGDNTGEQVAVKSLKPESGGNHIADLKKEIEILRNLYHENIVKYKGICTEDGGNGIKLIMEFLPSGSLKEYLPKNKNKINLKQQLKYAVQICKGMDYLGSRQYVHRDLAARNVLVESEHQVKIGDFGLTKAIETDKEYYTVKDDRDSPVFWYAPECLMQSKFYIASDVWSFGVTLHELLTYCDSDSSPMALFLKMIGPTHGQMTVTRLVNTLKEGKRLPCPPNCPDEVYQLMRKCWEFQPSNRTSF

| SMILES | IC50 (JAK1) | JAK2/ JAK1 (JAK2) |
| --- | --- | --- |
| C[C@@H](O)c1nc2cnc3ccsc3c2n1[C@H]1CC[C@H](CC#N)OC1 [Example 1, ((2R,5S)-5-{2-[(1R)-1-hydroxyethyl]-1H-imidazo[4,5-d]thieno[3,2-b]pyridin-1-yl}tetrahydro-2H-pyran-2-yl)acetonitrile] | < 0.1 µM | >10 |
| N#CC[C@]1(n2cc(-c3ncnc4[nH]ccc34)cn2)C[C@H](N2CCC(Oc3cc(CN4CC(O)C4)cc(C(F)(F)F)n3)CC2)C1 [Example 11] | < 0.01 µM | >10 |
| N#CC[C@]1(n2cc(-c3ncnc4[nH]ccc34)cn2)C[C@H](N2CCC(Oc3cc(CN4CCC[C@H]4CO)cc(C(F)(F)F)n3)CC2)C1 [Example 12] | < 0.01 µM | >10 |
| N#CC[C@]1(n2cc(-c3ncnc4[nH]ccc34)cn2)C[C@H](N2CCC(Oc3cc(CN4CCC[C@@H]4CO)cc(C(F)(F)F)n3)CC2)C1 [Example 13] | < 0.01 µM | >10 |
| N#CCC1(n2cc(-c3ncnc4[nH]ccc34)cn2)CN([C@H]2CC[C@@H](Oc3cc(CCO)nc(C(F)(F)F)n3)CC2)C1 [Example 18, {1-(cis-4-{[6-(2-hydroxyethyl)-2-(trifluoromethyl)pyrimidin-4-yl]oxy}cyclohexyl)-3-[4-(7H-pyrrolo[2,3-d]pyrimidin-4-yl)-1H-pyrazol-1-yl]azetidin-3-yl}acetonitrile] | < 0.01 µM | >10 |
| CCNCc1cc(O[C@H]2CC[C@@H](N3CC(CC#N)(n4cc(-c5ncnc6[nH]ccc56)cn4)C3)CC2)nc(C(F)(F)F)c1 [Example 19, {1-(cis-4-{[4-[(ethylamino)methyl]-6-(trifluoromethyl)pyridin-2-yl]oxy}cyclohexyl)-3-[4-(7H-pyrrolo[2,3-d]pyrimidin-4-yl)-1H-pyrazol-1-yl]azetidin-3-yl}acetonitrile] | < 0.01 µM | >10 |
| CC(C)(O)c1cc(O[C@H]2CC[C@@H](N3CC(CC#N)(n4cc(-c5ncnc6[nH]ccc56)cn4)C3)CC2)nc(C(F)(F)F)c1 [Example 20, {1-(cis-4-{[4-(1-hydroxy-1-methylethyl)-6-(trifluoromethyl)pyridin-2-yl]oxy}cyclohexyl)-3-[4-(7H-pyrrolo[2,3-d]pyrimidin-4-yl)-1H-pyrazol-1-yl]azetidin-3-yl}acetonitrile] | < 0.01 µM | >10 |
| N#CCC1(n2cc(-c3ncnc4[nH]ccc34)cn2)CN([C@H]2CC[C@@H](Oc3cc(CN4CC[C@@H](O)C4)cc(C(F)(F)F)n3)CC2)C1 [Example 21, {1-(cis-4-{[4-{[(3R)-3-hydroxypyrrolidin-1-yl]methyl}-6-(trifluoromethyl)pyridin-2-yl]oxy}cyclohexyl)-3-[4-(7H-pyrrolo[2,3-d]pyrimidin-4-yl)-1H-pyrazol-1-yl]azetidin-3-yl}acetonitrile] | < 0.01 µM | >10 |
| N#CCC1(n2cc(-c3ncnc4[nH]ccc34)cn2)CN([C@H]2CC[C@@H](Oc3cc(CN4CC[C@H](O)C4)cc(C(F)(F)F)n3)CC2)C1 [Example 22, {1-(cis-4-{[4-{[(3S)-3-hydroxypyrrolidin-1-yl]methyl}-6-(trifluoromethyl)pyridin-2-yl]oxy}cyclohexyl)-3-[4-(7H-pyrrolo[2,3-d]pyrimidin-4-yl)-1H-pyrazol-1-yl]azetidin-3-yl}acetonitrile] | < 0.01 µM | >10 |
| C[C@@H](CO)NCc1cc(OC2CCN([C@H]3C[C@](CC#N)(n4cc(-c5ncnc6[nH]ccc56)cn4)C3)CC2)nc(C(F)(F)F)c1 [Example 23] | < 0.01 µM | >10 |
| C[C@@H](O)CNCc1cc(OC2CCN([C@H]3C[C@](CC#N)(n4cc(-c5ncnc6[nH]ccc56)cn4)C3)CC2)nc(C(F)(F)F)c1 [Example 24] | < 0.01 µM | >10 |
| C[C@H](O)CNCc1cc(OC2CCN([C@H]3C[C@](CC#N)(n4cc(-c5ncnc6[nH]ccc56)cn4)C3)CC2)nc(C(F)(F)F)c1 [Example 25] | < 0.01 µM | >10 |

The remaining lines, values ahead:

| IC50 (JAK1) | JAK2/ JAK1 (JAK2) | SMILES |
| --- | --- | --- |
| < 0.01 µM | >10 | N#CCC(C1CCN(c2cccc(Cl)n2)C1)n1cc(-c2ncnc3[nH]ccc23)cn1 (centres unmarked) [Example 3, 3-[1-(6-chloropyridin-2-yl)pyrrolidin-3-yl]-3-[4-(7H-pyrrolo[2,3-d]pyrimidin-4-yl)-1H-pyrazol-1-yl]propanenitrile] |
| < 0.01 µM | >10 | N#CCC(C1CCN(c2nc3cccnc3o2)C1)n1cc(-c2ncnc3[nH]ccc23)cn1 (centres unmarked) [Example 4, 3-(1-[1,3]oxazolo[5,4-b]pyridin-2-ylpyrrolidin-3-yl)-3-[4-(7H-pyrrolo[2,3-d]pyrimidin-4-yl)-1H-pyrazol-1-yl]propanenitrile] |
| < 0.01 µM | >10 | N#CCC(CN1CCN(C(=O)c2ccc(C#N)cc2F)CC1)n1cc(-c2ncnc3[nH]ccc23)cn1 (centres unmarked) [Example 5, 4-[(4-{3-cyano-2-[4-(7H-pyrrolo[2,3-d]pyrimidin-4-yl)-1H-pyrazol-1-yl]propyl}piperazin-1-yl)carbonyl]-3-fluorobenzonitrile] |
| < 0.01 µM | >10 | N#CCC(CN1CCN(C(=O)c2ccc(C#N)cc2F)CC1)n1ccc(-c2ncnc3[nH]ccc23)c1 (centres unmarked) [Example 6, 4-[(4-{3-cyano-2-[3-(7H-pyrrolo[2,3-d]pyrimidin-4-yl)-1H-pyrrol-1-yl]propyl}piperazin-1-yl)carbonyl]-3-fluorobenzonitrile] |
| < 0.01 µM | >10 | N#CCC1(n2cc(-c3ncnc4[nH]ccc34)cn2)CN(C2CCN(C(=O)c3ccnc(C(F)(F)F)c3F)CC2)C1 [Example 7] |
| < 0.01 µM | >10 | N#CCC1(n2cc(-c3ncnc4[nH]ccc34)cn2)CN(C2CCN(C(=O)Nc3ccc(F)cc3C(F)(F)F)CC2)C1 [Example 8] |
| < 0.01 µM | >10 | N#CCC1(n2cc(-c3ncnc4[nH]ccc34)cn2)CN(C2CCN(C(=O)c3ccnc(C(F)(F)F)n3)CC2)C1 [Example 9, [3-[4-(7H-pyrrolo[2,3-d]pyrimidin-4-yl)-1H-pyrazol-1-yl]-1-(1-{[2-(trifluoromethyl)pyrimidin-4-yl]carbonyl}piperidin-4-yl)azetidin-3-yl]acetonitrile] |
| < 0.01 µM | >10 | N#CC[C@]1(n2cc(-c3ncnc4[nH]ccc34)cn2)C[C@H](N2CCN(C(=O)c3ccnc(C(F)(F)F)n3)CC2)C1 [Example 10] |
| < 0.01 µM | >10 | C[C@H](NC(=O)c1cc(F)c(N2CC(CC#N)(n3cc(-c4ncnc5[nH]ccc45)cn3)C2)cc1F)C(F)(F)F [Example 16, 4-{3-(cyanomethyl)-3-[4-(7H-pyrrolo[2,3-d]pyrimidin-4-yl)-1H-pyrazol-1-yl]azetidin-1-yl}-2,5-difluoro-N-[(1S)-2,2,2-trifluoro-1-methylethyl]benzamide] |
| < 0.01 µM | >10 | N#CC[C@]1(n2cc(-c3ncnc4[nH]ccc34)cn2)C[C@H](N2CCC(Oc3cc(CCO)cc(C(F)(F)F)n3)CC2)C1 [Example 26] |
